Measured values from patent US11472803B2, “7-substituted 1-aryl-naphthyridine-3-carboxylic acid amides and use thereof” (Bayer Aktiengesellschaft, priority 2016, dated 2022).

Experiments:
human M2 receptor [1] = biological target: T1, human M2 receptor (Homo sapiens, UniProt P08172); assay: Functional M2-GIRK1/4 activation test: positive cooperativity (α factor), shift of acetylcholine dose-response curve; type: cell-based; details: Allosteric EC50 shift of acetylcholine 8-point dose-response curve; CHO-DUKX-M2-GIRK cells; α>1 = positive cooperativity
T1 construct: expressed in transfected cells; host or cells: CHO-DUKX (CHO-DUKX-M2-GIRK)
T1 sequence (P08172 1-466): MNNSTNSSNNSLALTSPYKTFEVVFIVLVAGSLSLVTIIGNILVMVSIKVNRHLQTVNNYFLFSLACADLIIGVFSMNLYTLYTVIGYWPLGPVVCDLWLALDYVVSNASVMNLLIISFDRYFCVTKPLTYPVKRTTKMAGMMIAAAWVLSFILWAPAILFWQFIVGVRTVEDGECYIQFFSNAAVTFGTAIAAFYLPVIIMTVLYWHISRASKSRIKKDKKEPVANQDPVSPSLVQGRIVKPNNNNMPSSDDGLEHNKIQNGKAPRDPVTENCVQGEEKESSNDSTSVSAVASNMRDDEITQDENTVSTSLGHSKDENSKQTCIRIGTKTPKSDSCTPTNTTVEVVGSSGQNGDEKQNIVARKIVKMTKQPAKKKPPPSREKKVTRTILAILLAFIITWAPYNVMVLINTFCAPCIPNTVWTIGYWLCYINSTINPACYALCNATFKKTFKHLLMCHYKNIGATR
In short: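 CHO-DUKX cells stably expressing human M2 and GIRK1/4, loaded with voltage-sensitive dye at room temperature; hyperpolarization followed by fluorescence. Each test-substance concentration, added first, combined with an 8-point acetylcholine dose-response; shift of the acetylcholine curve analysed by allosteric EC50 shift model to give cooperativity factor α.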

human M2 receptor [2] = biological target: T1, human M2 receptor; assay: Functional M2-GIRK1/4 activation test: allosteric potency (EC50) and efficiency at EC20 acetylcholine; type: cell-based; details: CHO-DUKX-M2-GIRK cells; for EC50: voltage-sensitive dye, acetylcholine at EC20, in some cases mean of two or more determinations; for Emax: boosting of the acetylcholine effect at EC20 acetylcholine concentration
In short: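 Positive allosteric modulation measured as boosting of an EC20 acetylcholine response: hyperpolarization via GIRK1/4 in CHO-DUKX-M2-GIRK cells, monitored by membrane-potential dye fluorescence over 60 s after agonist, compound preadded. Hill-function fit gives EC50 and efficiency.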

Row | Cooperativity (alpha factor) (human M2 receptor [1]) | EC50 (human M2 receptor [2]) [nM] | Emax (human M2 receptor [2]) [%] | Compound
1 | 53 | 6.65 | 98 | CC[C@H](NC(=O)c1cn(-c2c(F)cc(F)cc2F)c2nc(N3CC[C@H](O)C3)c(F)cc2c1=O)C(F)(F)F [Example 115, 6-Fluoro-7-[(3S)-3-hydroxypyrrolidin-1-yl]-4-oxo-N-[(2S)-1,1,1-trifluorobutan-2-yl]-1-(2,4,6-trifluorophenyl)-1,4-dihydro-1,8-naphthyridine-3-carboxamide]
2 | 67 | 4.5 | 98 | O=C(NC(C(F)(F)F)C(F)(F)F)c1cn(-c2c(F)cc(F)cc2F)c2nc(N3C[C@@H](O)[C@H](O)C3)c(F)cc2c1=O [Example 144, 7-[(3R,4R)-3,4-Dihydroxypyrrolidin-1-yl]-6-fluoro-N-(1,1,1,3,3,3-hexafluoropropan-2-yl)-4-oxo-1-(2,4,6-trifluorophenyl)-1,4-dihydro-1,8-naphthyridine-3-carboxamide]
3 | 86 | 11.2 | 100 | O=C(NC(C(F)(F)F)C(F)(F)F)c1cn(-c2ncc(F)cc2F)c2nc(N3C[C@@H](O)[C@H](O)C3)c(F)cc2c1=O [Example 145, 1-(3,5-Difluoropyridin-2-yl)-7-[(3R,4R)-3,4-dihydroxypyrrolidin-1-yl]-6-fluoro-N-(1,1,1,3,3,3-hexafluoropropan-2-yl)-4-oxo-1,4-dihydro-1,8-naphthyridine-3-carboxamide]
4 | 45 | 7.1 | 100 | CC(C)(NC(=O)c1cn(-c2c(F)cc(F)cc2F)c2nc(N3C[C@@H](O)[C@H](O)C3)c(Br)cc2c1=O)C(F)(F)F [Example 159, 6-Bromo-7-[(3R,4R)-3,4-dihydroxypyrrolidin-1-yl]-4-oxo-N-(1,1,1-trifluoro-2-methylpropan-2-yl)-1-(2,4,6-trifluorophenyl)-1,4-dihydro-1,8-naphthyridine-3-carboxamide]
5 | 38 | 7.3 | 100 | O=C(N[C@@H](C1CC1)C(F)(F)F)c1cn(-c2c(F)cc(F)cc2F)c2nc(N3C[C@@H](O)[C@H](O)C3)c(Br)cc2c1=O [Example 160, 6-Bromo-N-[(1S)-1-cyclopropyl-2,2,2-trifluoroethyl]-7-[(3R,4R)-3,4-dihydroxypyrrolidin-1-yl]-4-oxo-1-(2,4,6-trifluorophenyl)-1,4-dihydro-1,8-naphthyridine-3-carboxamide]
6 | 45 | 2 | 100 | CC(C)(NC(=O)c1cn(-c2c(F)cc(F)cc2F)c2nc(N3C[C@@H](O)[C@H](O)C3)c(F)cc2c1=O)C(F)(F)C(F)(F)F [Example 164, 7-[(3R,4R)-3,4-Dihydroxypyrrolidin-1-yl]-6-fluoro-4-oxo-N-(3,3,4,4,4-pentafluoro-2-methyl-butan-2-yl)-1-(2,4,6-trifluorophenyl)-1,4-dihydro-1,8-naphthyridine-3-carboxamide]
7 | 48 | 2.4 | 100 | CC(C)(C)C(C)(C)NC(=O)c1cn(-c2c(F)cc(F)cc2F)c2nc(N3C[C@@H](O)[C@H](O)C3)c(F)cc2c1=O [Example 165, 7-[(3R,4R)-3,4-Dihydroxypyrrolidin-1-yl]-6-fluoro-4-oxo-1-(2,4,6-trifluorophenyl)-N-(2,3,3-trimethylbutan-2-yl)-1,4-dihydro-1,8-naphthyridine-3-carboxamide]
8 | 31 | 4.4 | 100 | CC(C)(NC(=O)c1cn(-c2c(F)cc(F)cc2F)c2nc(N3CC(CO)(CO)C3)c(F)cc2c1=O)C(F)(F)C(F)(F)F [Example 166, 7-[3,3-Bis(hydroxymethyl)azetidin-1-yl]-6-fluoro-4-oxo-N-(3,3,4,4,4-pentafluoro-2-methyl-butan-2-yl)-1-(2,4,6-trifluorophenyl)-1,4-dihydro-1,8-naphthyridine-3-carboxamide]
9 | 29 | 5 | 100 | O=C(NC(C1CC1)(C1CC1)C(F)(F)F)c1cn(-c2c(F)cc(F)cc2F)c2nc(N3C[C@@H](O)[C@H](O)C3)c(F)cc2c1=O [Example 203, N-(1,1-dicyclopropyl-2,2,2-trifluoroethyl)-7-[(3R,4R)-3,4-dihydroxypyrrolidin-1-yl]-6-fluoro-4-oxo-1-(2,4,6-trifluorophenyl)-1,4-dihydro-1,8-naphthyridine-3-carboxamide]
10 | 27 | 1.8 | 100 | O=C(NC(C1CC1)(C1CC1)C(F)(F)C(F)(F)F)c1cn(-c2c(F)cc(F)cc2F)c2nc(N3C[C@@H](O)[C@H](O)C3)c(F)cc2c1=O [Example 208, N-(1,1-dicyclopropyl-2,2,3,3,3-pentafluoropropyl)-7-[(3R,4R)-3,4-dihydroxypyrrolidin-1-yl]-6-fluoro-4-oxo-1-(2,4,6-trifluorophenyl)-1,4-dihydro-1,8-naphthyridine-3-carboxamide]
11 | 26 | 2.1 | 100 | O=C(NC(C1CC1)(C1CC1)C(F)(F)F)c1cn(-c2c(F)cc(F)cc2F)c2nc(N3CC(CO)(CO)C3)c(F)cc2c1=O [Example 210, 7-[3,3-bis(hydroxymethyl)azetidin-1-yl]-N-(1,1-dicyclopropyl-2,2,2-trifluoroethyl)-6-fluoro-4-oxo-1-(2,4,6-trifluorophenyl)-1,4-dihydro-1,8-naphthyridine-3-carboxamide]
12 | 28 | 2 | 100 | O=C(NC(C1CC1)(C1CC1)C(F)(F)C(F)(F)F)c1cn(-c2c(F)cc(F)cc2F)c2nc(N3CC(CO)(CO)C3)c(F)cc2c1=O [Example 212, 7-[3,3-bis(hydroxymethyl)azetidin-1-yl]-N-(1,1-dicyclopropyl-2,2,3,3,3-pentafluoropropyl)-6-fluoro-4-oxo-1-(2,4,6-trifluorophenyl)-1,4-dihydro-1,8-naphthyridine-3-carboxamide]
13 | 36 | 9.7 | 97 | O=C(NC(C(F)(F)F)C(F)(F)F)c1cn(-c2c(F)cc(F)cc2F)c2nc(N3CC(CO)(CO)C3)c(F)cc2c1=O [Example 230, 7-[3,3-bis(hydroxymethyl)azetidin-1-yl]-6-fluoro-N-(1,1,1,3,3,3-hexafluoropropan-2-yl)-4-oxo-1-(2,4,6-trifluorophenyl)-1,4-dihydro-1,8-naphthyridine-3-carboxamide]
